Data reported in the METLIN SMRT retention time set (Domingo-Almenara et al. 2019).

Experiment: gradient 5% acetonitrile 3 min, to 50% in 2 min, to 85% in 15 min, held 3 min, 100 µL/min
Conditions: column: Zorbax Extend-C18 2.1 x 50 mm; eluents: water / acetonitrile, 0.1% formic acid
Method in brief: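 Pure standards were run in mixtures of ~100 molecules by HPLC coupled to a quadrupole time-of-flight mass spectrometer. The column was a Zorbax Extend-C18 (2.1 × 50 mm, 1.8 μm) at 100 μL/min, with water and acetonitrile each containing 0.1% formic acid, in positive and negative ionization mode. Dead and dwell volumes were 40 μL and 900 μL. Retention time was taken from computationally picked adduct peaks, each manually inspected, with data collected over 3 months.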

| Structure (SMILES) | RP-LC retention time [s] |
| --- | --- |
| Cc1nc(N2CCCC2)c2c(C(=O)Nc3cccc(Cl)c3)c(C)oc2n1 | 852 |
| CN1C(=O)c2cc(C(=O)NCc3ccc(Cl)cc3)nn2CC1(C)C(=O)NCc1ccccc1 (stereo not given) | 832 |
| CCc1nnc(-c2cc(S(=O)(=O)NCCc3ccc(S(N)(=O)=O)cc3)cn2C)o1 | 676 |
| COC(=O)c1c(NCc2ccc3c(c2)OCO3)c2cccc(Cl)c2[nH]c1=O | 788 |
| Cc1sc2ccn(CC(C)C)c(=O)c2c1C(=O)NC1CCN(Cc2ccccc2)CC1 | 658 |
| Cc1ccc2nc(-c3cccc(Br)c3)c(Nc3ccc4c(c3)OCCO4)n2c1 | 749 |
| CCCn1cc(C(=O)NCc2ccc(N(C)C)cc2)c2cccnc21 | 630 |
| Cc1nc(Nc2ccc(NC(=O)c3ccc(Br)o3)cc2)cc(-n2ccnc2)n1 | 587 |
| CCC(=O)N1CCC2(CC1)CC(CC(=O)N(C)C)CCO2 (stereo not given) | 598 |
| CCOc1ccc(C2Cn3nnc(-c4nc(-c5ccc(F)cc5)no4)c3CO2)cc1 (stereo not given) | 1130 |
| Cc1cccc2c(=O)n(C3CCN(S(=O)(=O)c4ccc(Cl)cc4)CC3)cnc12 | 1030 |
| COc1ccccc1CNC(=O)c1cn(C)nc1S(=O)(=O)N1CCSCC1 | 847 |
| COc1ccc2c(c1)C1(CCN(S(=O)(=O)c3ccccc3F)C1)C(=O)N2C (stereo not given) | 901 |
| COc1ccc(CN2C=C(C(=O)OCc3noc(-c4cccc(F)c4)n3)C(C)=NS2(=O)=O)cc1 | 1050 |
| Cc1noc(C)c1S(=O)(=O)N1CCC2(CC1)NCCc1c2[nH]c2ccccc12 | 588 |
| COc1cc(NC(=O)c2c(OC)cc(=O)n3c2CCCC3)cc(OC)c1 | 691 |
| Cc1ccccc1NC(=O)N1CCc2nc(-c3ccccc3)ncc2C1 | 817 |
| COC(=O)c1ccc2c(=O)n(-c3ccc(C)c(F)c3)c(N3CCSCC3)nc2c1 | 1100 |
| CCC(C)n1ncn(-c2ccc(N3CCN(c4ccc(OC[C@@H]5CO[C@@](Cn6cncn6)(c6ccc(Cl)cc6Cl)O5)cc4)CC3)cc2)c1=O (stereo not given in full) | 1060 |
| CCc1nc2cccnc2n1CCN1CCN(C(=O)Nc2ccc3c(c2)OCO3)CC1 | 579 |
| Cc1ccc(Nc2c(-c3ccccc3)nc3ccc(Cl)cn23)cc1 | 787 |
| Cc1ccccc1NC(=O)Nc1c(-c2ccc(F)cc2)nc2ccccn12 | 661 |

| Structure (SMILES) | RP-LC retention time [s] |
| --- | --- |
| CCOc1ccc(-c2csc(NC(=O)CCCOc3ccc(CC)cc3)n2)cc1 | 1290 |
| Cc1ccccc1-c1nc(C2CCN(S(=O)(=O)c3ccc4c(c3)CCCC4)CC2)no1 | 1380 |
| CSc1ccc(CNC(=O)CN2CCc3ccccc3C2C(=O)N2CCCCC2)cc1 (stereo not given) | 889 |
| COc1ccc(NC(=O)N2CC=C(c3cn(C(C)C)c4ncccc34)CC2)cc1OC | 826 |
| Cc1ccc(F)cc1S(=O)(=O)N[C@@H]1CN(c2ncccn2)C[C@H]1CN(C)C | 618 |
| COCCNC(=O)N1c2ccccc2NC2=C(C(=O)CC(C)(C)C2)C1c1ccc(OC)cc1 (stereo not given) | 704 |
| CCOC(=O)C1CCN(c2nc3ccccc3n2Cc2cc(C)ccc2C)CC1 | 858 |
| Cc1cc(=O)n(CC(=O)NCc2ccc3c(c2)OCO3)c(N2CCc3ccccc3C2)n1 | 718 |
| O=C(CSc1ccc(N2CCCC(C(=O)NC3CC3)C2)nn1)Nc1ccc(F)cc1F (stereo not given) | 617 |
| Cc1sc(-c2nc(C(C)C)cs2)cc1S(=O)(=O)NCc1ccccc1 | 1190 |
| CCN1CCN(CCCNC(=O)Cc2c(C(=O)O)c(C)cn2CC)CC1 | 563 |
| Cc1ccc(-c2noc(Cc3nnc(-c4cc(F)cc(F)c4)o3)n2)cc1C | 1170 |
| Cc1ccc2c(c1)OCC(=O)N2Cc1nc(-c2ccc(Cl)cc2)no1 | 1140 |
| CCC1CN2C=NC(N3CCN(S(=O)(=O)c4cc(Cl)ccc4OC)CC3)=CC2=N1 (stereo not given) | 705 |
| CCNC(=O)N1CCCC(Cn2cnc3cccnc32)C1 (stereo not given) | 578 |
| CCOC(=O)c1ccc2nc(C(F)(F)F)nc(NCCCN3CCOCC3)c2c1 | 658 |
| Cn1c(=O)n(C)c2cc(CNCCc3ccc(S(N)(=O)=O)cc3)ccc21 | 538 |
| Cn1c(=O)c2nc(S(=O)(=O)CCC(=O)Nc3ccc(Br)cc3)n(C)c2n(C)c1=O | 779 |
| Cc1cc(S(=O)(=O)[C@H]2CS(=O)(=O)C[C@@H]2N2CCN(Cc3ccccc3)CC2)ccc1F | 678 |
| Cc1ccc(-n2nnnc2CN2CCN(S(=O)(=O)N(C)C)CC2)cc1 | 756 |
| CCn1ccc2sc(C)c(C(=O)NCc3ccco3)c2c1=O | 723 |
| COc1cccc2sc(N(Cc3ccco3)C(=O)c3cc(C)nn3C)nc12 | 927 |

| Structure (SMILES) | RP-LC retention time [s] |
| --- | --- |
| O=C(CSc1nccc(N2CCCC2)n1)N1CCN(c2ccccc2F)CC1 | 677 |
| CCCc1noc(-c2ccnc(-n3ncc(C(=O)NC(C)C)c3C)c2)n1 | 868 |
| Cc1ccc(CNC(=O)C2CCCN(c3nc4ccsc4c(=O)n3Cc3ccc(C)cc3)C2)cc1 (stereo not given) | 1060 |
| COc1ccc(CCc2nc(C3CC(=O)N(c4ccc(Cl)cc4)C3)no2)cc1 (stereo not given) | 1050 |
| CS(=O)(=O)c1ccccc1C(=O)Nc1nc(-c2cc(Cl)sc2Cl)cs1 | 1030 |
| CCN(CC)C(=O)Cn1nc2ncccn2c1=O | 532 |
| O=C(CN1CCN(Cc2ccc(F)cc2Cl)C1=O)NC1CC1 | 692 |
| Cc1nnc2cc(N3CCN(S(=O)(=O)c4cccc(C(F)(F)F)c4)CC3)cnn12 | 730 |
| COC(=O)Nc1nc2ccc(C(=O)c3ccc(F)cc3)cc2[nH]1 | 864 |
| Cc1cccc(NC(=O)c2cn(C)nc2S(=O)(=O)N2CCSCC2)c1 | 941 |
| COc1ccc(Cn2c(=O)c3sccc3n(Cc3nc(-c4ccccc4C)no3)c2=O)cc1 | 1150 |
| O=C(C1=NN(Cc2ccc(F)cc2)c2ccccc2S1(=O)=O)N1CCOCC1 | 761 |
| COc1ccc(N2CCN(C(=O)C3CCCN(c4cc(=O)n(C)c(=O)n4C)C3)CC2)cc1 (stereo not given) | 696 |
| CCN(CC)c1nc2ccsc2c(=O)n1CCC(=O)NCc1ccccc1F | 823 |
| Cc1ccc(S(=O)(=O)N2C(=O)CCC2C(=O)N2CCN(c3ccccn3)CC2)cc1 (stereo not given) | 612 |
| COc1ccc(Cl)cc1C(=O)NC1CCN(c2cc(-c3ccccc3)[nH]n2)C1 (stereo not given) | 784 |
| O=C(Cn1nc(N2CCSCC2)c2ccccc2c1=O)Nc1ccccc1F | 928 |
| CC1(c2ccccc2)NN=C2Oc3ccccc3N21 (stereo not given) | 812 |
| CCCNC(=O)CCC1CCN(c2cc(NC3CC3)ncn2)CC1 | 600 |
| Nc1cc(C2CCN(C(=O)NCCc3ccccc3)CC2)no1 | 668 |
| O=C(NCc1cccnc1)C1CCN(c2ncnc3c2oc2ccccc23)CC1 | 583 |
